row,Structure (SMILES),melting point [°C]
1,CC(=O)c1cnc2c(c1)oc(=O)n2CCc1ccccn1,138 to 140
2,CCCCCCSc1sc(-c2cc[nH]n2)c2c1C(=O)CC(C)(C)C2,134 to 137
3,O=C(O)[C@H](Cc1ccc(F)cc1)[C@@H](O)c1ccc(F)cc1 (racemic),169 to 170
4,CNc1nc(-c2cccc([N+](=O)[O-])c2)c2cc(OC)c(OC)cc2n1,218 to 220
5,CCCc1nc2c(N)nc3ccccc3c2n1CCCCCC(=O)N1CCOCC1,149 to 151
6,CN1C(=O)C2(COc3cc4c(cc32)OCCO4)c2c(C#N)cccc21 (stereo not drawn),196 to 197
7,O=C(O)Cc1nn(Cc2ccc(Br)cc2F)c(=O)c2c(F)cccc12,173 to 175
8,COC(=O)CCS(=O)(=O)c1cc(C(C)(C)C)c(O)c(C(C)(C)C)c1,109 to 111
9,CC(=O)Oc1ccccc1C1SC[C@@H](C(=O)O)N1C(=O)CCSC(=O)c1ccc(C)cc1 (stereo partly drawn),93 to 96
10,CCOC(=O)Cc1c(-c2ccccc2)n[nH]c1-c1ccccc1,117 to 118
11,COc1ccc2[nH]c(C(=O)C(C)(C)c3ccc(Cl)cc3)cc2c1,177 to 179
12,Cc1ccc(-c2ccc3c(c2)C=C(C(=O)O)CC(c2ccccc2)O3)cc1 (stereo not drawn),296 to 297
13,O=C(O)c1cccc(CN2CCC(c3cn(Cc4ccco4)c4ccccc34)CC2)c1,154 to 155
14,Fc1cccc(Cl)c1[C@@H]1C[C@H](c2ccc(Cl)cc2)Nc2ncnn21 (relative stereo),227 to 228
15,CCCCc1nc2cnc3ccc(O)cc3c2n1C,219 to 220
16,COc1cc(C(=O)C#CCOC(=O)c2cc(OC)c(OC)c(OC)c2)cc(OC)c1OC,106 to 108
17,COC(=O)CC1CC(c2ccc(Cl)nc2)=NO1 (stereo not drawn),94 to 96
18,COc1ccc(C(=CCCC(=O)O)c2ccc(OC)cc2)cc1,113 to 114
19,CC(C)(NC(=O)c1cc2c(n(CC3CCCCC3)c1=O)CCCCCC2)C(=O)O,177 to 180
20,O=C1C(=O)N(CCN2CCN(C(c3ccccc3)c3ccccc3)CC2)c2ccccc21,145 to 148
21,COC(=O)C(O)c1ccc(Cl)cc1 (stereo not drawn),55
22,Cc1ccc(S(=O)(=O)O[C@@H]2CCCN(S(=O)(=O)c3ccc(C)cc3)C2)cc1,140 to 147

row,Structure (SMILES),melting point [°C]
1,COC(=O)N1CCC(c2nn(-c3ccc(F)cc3)c3ccccc23)CC1,95 to 97
2,CSc1nn2c(N)cc(C)nc2c1S(=O)(=O)c1ccc(F)cc1,> 230
3,CC(C)c1cccc2c1N(CC(=O)N1CC3CCC(CC3)C1)C(=O)C(NC(=O)Nc1cccc(-c3nnn[nH]3)c1)N=C2c1ccccc1F (stereo not drawn),212 to 222
4,CCOc1ccc2[nH]c(=O)n(-c3ccccn3)c2c1,205
5,CC1=CC(O)C(OC(=O)C=Cc2ccc(N)cc2)C(C)(C)CC1=O (stereo not drawn),49 to 50
6,Cc1cc2c(s1)S(=O)(=O)NC2=O,231
7,Cc1c(NC(=O)CC(C)(C)C)cc2c(c1C)OC(C)(C)C2Nc1ccccc1 (stereo not drawn),151 to 152
8,CCOC(=O)c1cn2c(ccc3cc(OC)ccc32)n1,119 to 121
9,Cc1cccc(C)c1CNc1cc(C(=O)O)cc2c1nc(C)n2C,315 to 318
10,Cc1cc(-c2ccc(C(F)(F)F)cc2)nc(-n2cnc(-c3ccc(S(N)(=O)=O)s3)c2)n1,277
11,COc1ccc(Oc2c(C)cc([N+](=O)[O-])cc2C)cc1C(=O)c1ccc(F)cc1,167 to 168
12,Cc1cc(N2CCC3(CC2)OCCO3)nn2cnnc12,156 to 157
13,CC(C)(C)c1cc(C=C2NC(=O)NC2=O)cc(C(C)(C)C)c1O,251 to 252
14,CCOP(=O)(/C=C/c1cn(-c2ccccc2)nc1OCc1ccc(OCc2nc(-c3ccccc3)sc2C)c(OC)c1)OCC,110 to 111
15,Oc1ccccc1-c1ccccc1P(c1cc(C(F)(F)F)cc(C(F)(F)F)c1)c1cc(C(F)(F)F)cc(C(F)(F)F)c1,120 to 121
16,COC(=O)c1ccc(Cc2cn(C)c3ccc(C=O)cc23)c(OC)c1,116 to 118
17,O=C1C2CCCCN2C(=O)N1c1ccc([N+](=O)[O-])c2ccccc12 (stereo not drawn),190 to 192
18,CC(=O)N1CCN(CC(=O)OC2c3ccccc3C(=O)N2c2ccc3ccc(Cl)nc3n2)CC1 (stereo not drawn),192
19,CCC(=NO)c1cc(Br)c(O)c(CN)c1,174 to 175
20,CCN(CCN(CC)c1ccc(N=O)c(C)c1)c1ccc(N=O)c(C)c1,157
21,CN1[C@H]2CC[C@@H]1[C@H](C=O)[C@@H](c1ccc(Cl)c(Cl)c1)C2,131 to 135
22,O=C1CCC(N2C(=O)c3cccc(OCc4ccc(CN5CCC(c6ccccc6)CC5)cc4)c3C2=O)C(=O)N1 (stereo not drawn),142 to 144

# The next lines start with the values.
row,melting point [°C],Structure (SMILES)
1,45 to 47,CCCCCCCCc1ccc(C(=O)C2CC2C(=O)O)cc1 (stereo not drawn)
2,120,Cc1c(-c2ccc(F)cc2)c(-c2ccc(S(N)(=O)=O)cc2)c2n1CCC2
3,167 to 168,CCOC(=O)c1cc(NCc2ccccc2)c(Nc2ccc(C)cc2C)c(S(N)(=O)=O)c1
4,105 to 107,CCOc1cc(C(CC(=O)O)N2Cc3cccc(NC(C)=O)c3C2=O)ccc1OC(F)F (stereo not drawn)
5,91 to 93,COCCOc1ccc(CCCOC(=O)NS(=O)(=O)NCCc2ccccn2)c(Oc2ncc(C(F)(F)F)cc2Cl)c1
6,193 to 195,O=C(O)c1cc2cc(CCNS(=O)(=O)c3ccc(Cl)cc3)ccc2o1
7,271 to 273,Cc1[nH]c(-c2ccccc2)c(N)c1C(=O)Nc1ccccc1
8,67 to 68,CSC(SC)c1cnn(-c2c(Cl)cc(C(F)(F)F)cc2Cl)n1
9,83,COc1ccc(N)cc1NC(C)=O
10,215 to 217,CC(=O)OC1CCc2c(Nc3ccc(C#N)cc3)ncnc21 (stereo not drawn)
11,202 to 204,CCCOc1ccc(S(=O)(=O)NCCN(C)C)cc1-c1nc2cc(N)c(N)cc2c(=O)[nH]1
12,151 to 153,CCCn1c(=O)n(C2OC(CO)C(O)C2O)c2nc(N)[nH]c(=O)c21 (stereo not drawn)
13,116 to 118,COC(=O)N1CCC(=C2c3ccccc3CCc3cccnc32)CC1
14,95.6 to 97.6,CCOC(=O)c1cn2c3ccc(Br)cc3c3cc(OC)cc(c1=O)c32
15,176 to 178,O=C(O)c1ccc(-c2ccccc2O)cc1
16,236 to 239,Cn1c(CNC(=O)Nc2cccc(C(=O)O)c2)c(-c2ccccc2)c2cc(Cl)ccc2c1=O
17,158 to 160,Cc1oc(-c2ccc(F)cc2)nc1CCOc1ccc(CN(O)C(N)=O)cc1
18,82 to 83,COC(=S)c1sc(C)c(Cl)c1OC
19,135 to 136,Cc1nc[nH]c1CSCCNC(=NCCc1ccccc1)NC#N
20,90 to 93,COc1cc2ncc(O[C@H]3CC[C@H](C(=O)O)CC3)nc2cc1OC
21,> 300,COc1cc(OC)cc(C(=O)NC(=O)Nc2ccc3c(c2)NC(=O)/C3=C\c2[nH]c(C)c(C(=O)O)c2C)c1
22,42 to 49,CC(C)C[C@H](NC(=O)OCC1CCCCC1)C(=O)NC(C)(C)C(=O)c1c(-c2ccccc2)c1=O
23,203 to 205,Cc1cc(NC(=O)c2c(Cl)cccc2Cl)c2nccc(Cl)c2c1
24,155 to 157,CCCOC(=O)Nc1nc2ccccc2c2c1nc(CC)n2CCCCNS(C)(=O)=O

# — a melting point compilation (Tetko et al.; mined from patent text by program, amines drawn as free bases though some values may be those of a salt)
